According to ChEMBL document CHEMBL1201862, “PubChem BioAssay data set” (2004):
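Method: 48-hour compound exposure of cells in 96-well plates, five concentrations, linear interpolation of endpoints. GI50 marks 50% less growth.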 The source made the active and inactive calls. Rule as the data show it: active = GI50 up to about 1.1 µM and inactive = higher.

Key:
Assay in all cases: NCI-60 cell line screen, 48 h
[1] = system: 786-0
[2] = system: CAKI-1
[3] = system: EKVX
[4] = system: HCC 2998
[5] = system: HOP-92
[6] = system: HT-29
[7] = system: M14
[8] = system: Malme-3M
[9] = system: NCI-H460
[10] = system: OVCAR-3
[11] = system: OVCAR-5
[12] = system: OVCAR-8
[13] = system: RPMI-8226
[14] = system: SK-MEL-2
[15] = system: SK-OV-3
[16] = system: SN12C
[17] = system: T47D
[18] = system: TK-10
[19] = system: UACC-257
[20] = system: UACC-62

| Structure (SMILES) | GI50 [1] | GI50 [2] | GI50 [3] | GI50 [4] | GI50 [5] | GI50 [6] | GI50 [7] | GI50 [8] | GI50 [9] | GI50 [10] | GI50 [11] | GI50 [12] | GI50 [13] | GI50 [14] | GI50 [15] | GI50 [16] | GI50 [17] | GI50 [18] | GI50 [19] | GI50 [20] |
| --- | --- | --- | --- | --- | --- | --- | --- | --- | --- | --- | --- | --- | --- | --- | --- | --- | --- | --- | --- | --- |
| COc1cc2c(cc1OC)C13CCN4CC5CCOC6CC(=O)N2C1C6C5CC43 (configuration not stated) | > 100 µM (inactive) | > 100 µM (inactive) | > 100 µM (inactive) | > 100 µM (inactive) | > 100 µM (inactive) | > 100 µM (inactive) | > 100 µM (inactive) | > 100 µM (inactive) | > 100 µM (inactive) | > 100 µM (inactive) | > 100 µM (inactive) | > 100 µM (inactive) | > 100 µM (inactive) | > 100 µM (inactive) | > 100 µM (inactive) | > 100 µM (inactive) | > 100 µM (inactive) | > 100 µM (inactive) | > 100 µM (inactive) | > 100 µM (inactive) |
| C=C1C(=O)OC2/C=C(\C)C3OC3/C=C(/C(=O)OC)C(OC(C)=O)C(OC(=O)C(C)(O)C(C)OC(C)=O)C12 (configuration not stated) | 2.22 µM (inactive) | 4.36 µM (inactive) | 10.5 µM (inactive) | 3.83 µM (inactive) | 1.9 µM (inactive) | 1.29 µM (inactive) | 2.39 µM (inactive) | 2.14 µM (inactive) | 3.45 µM (inactive) | 3.13 µM (inactive) | 5.58 µM (inactive) | 1.4 µM (inactive) | 0.92 µM (active) | 4.59 µM (inactive) | 18.7 µM (inactive) | 2.67 µM (inactive) | 6.3 µM (inactive) | 1.83 µM (inactive) | 0.679 µM (active) | 1.7 µM (inactive) |
| Oc1ccc2ccccc2c1-c1nnc(CCCCCCCCc2nnc(-c3c(O)ccc4ccccc34)o2)o1 | 1.1 µM (active) | 0.813 µM (active) | 4.05 µM (inactive) | 4.06 µM (inactive) | 9.82 µM (inactive) | 13.4 µM (inactive) | 1.34 µM (inactive) | 3.1 µM (inactive) | 0.955 µM (active) | 0.314 µM (active) | 6.32 µM (inactive) | 2.18 µM (inactive) | 2.72 µM (inactive) | 5.87 µM (inactive) | 18.1 µM (inactive) | 1.21 µM (inactive) | 4 µM (inactive) | 9.42 µM (inactive) | 10.2 µM (inactive) | 7.64 µM (inactive) |
| Nc1nc(Cl)cc(NCC2CC(O)(CO)C2)n1 (configuration not stated) | > 100 µM (inactive) | > 100 µM (inactive) | > 100 µM (inactive) | > 100 µM (inactive) | > 100 µM (inactive) | > 100 µM (inactive) | – | > 100 µM (inactive) | > 100 µM (inactive) | > 100 µM (inactive) | > 100 µM (inactive) | > 100 µM (inactive) | > 100 µM (inactive) | > 100 µM (inactive) | > 100 µM (inactive) | > 100 µM (inactive) | > 100 µM (inactive) | > 100 µM (inactive) | > 100 µM (inactive) | > 100 µM (inactive) |
| Cc1cn2c(/C=C3/C(=O)Nc4ccccc43)c(C)nc2s1 | 3.82 µM (inactive) | 3.07 µM (inactive) | 6.11 µM (inactive) | 1.84 µM (inactive) | 14.4 µM (inactive) | 0.605 µM (active) | 0.991 µM (active) | 2.61 µM (inactive) | 0.653 µM (active) | 0.787 µM (active) | 6.55 µM (inactive) | 3.54 µM (inactive) | 1.75 µM (inactive) | 1.32 µM (inactive) | 3.15 µM (inactive) | 7.03 µM (inactive) | 0.665 µM (active) | 3.78 µM (inactive) | 2.78 µM (inactive) | 1.33 µM (inactive) |
| CC(C)NCC(O)c1cc(OCc2ccccc2)c(OCc2ccccc2)cc1NC(=O)CCC(=O)O (configuration not stated) | 7.52 µM (inactive) | 8.75 µM (inactive) | 12.4 µM (inactive) | 2.49 µM (inactive) | 4.78 µM (inactive) | 3.75 µM (inactive) | 1.45 µM (inactive) | 15.2 µM (inactive) | 1.85 µM (inactive) | 13.6 µM (inactive) | 16.7 µM (inactive) | 7.66 µM (inactive) | 2.81 µM (inactive) | 1.45 µM (inactive) | 14.9 µM (inactive) | 11.7 µM (inactive) | 10 µM (inactive) | 7.53 µM (inactive) | 13.4 µM (inactive) | 3.25 µM (inactive) |
| CNC(=O)CCCNC(=O)CCCC(=O)OC | > 100 µM (inactive) | > 100 µM (inactive) | > 100 µM (inactive) | > 100 µM (inactive) | > 100 µM (inactive) | > 100 µM (inactive) | > 100 µM (inactive) | > 100 µM (inactive) | > 100 µM (inactive) | > 100 µM (inactive) | > 100 µM (inactive) | > 100 µM (inactive) | > 100 µM (inactive) | > 100 µM (inactive) | > 100 µM (inactive) | > 100 µM (inactive) | > 100 µM (inactive) | > 100 µM (inactive) | > 100 µM (inactive) | > 100 µM (inactive) |
| Clc1ccc(-c2cc(-c3nc4ccccc4[nH]3)no2)cc1 | 24.3 µM (inactive) | 18.3 µM (inactive) | 16.9 µM (inactive) | 18.6 µM (inactive) | 33.7 µM (inactive) | 18.2 µM (inactive) | 18.4 µM (inactive) | 19.3 µM (inactive) | 16.9 µM (inactive) | 18.5 µM (inactive) | 18.7 µM (inactive) | 33.8 µM (inactive) | 24.3 µM (inactive) | 18.7 µM (inactive) | 18.6 µM (inactive) | 18.6 µM (inactive) | 11.7 µM (inactive) | 21.9 µM (inactive) | 18.8 µM (inactive) | 14.6 µM (inactive) |
| O=c1[nH]ncc2[nH]c3c(c12)CCCc1ccccc1-3 | 33 µM (inactive) | 35.2 µM (inactive) | 4.92 µM (inactive) | 27.9 µM (inactive) | 72.3 µM (inactive) | 31.1 µM (inactive) | 46.6 µM (inactive) | 96.2 µM (inactive) | 29.7 µM (inactive) | 48.4 µM (inactive) | 43.4 µM (inactive) | 53.6 µM (inactive) | 27.8 µM (inactive) | 34.9 µM (inactive) | 28.6 µM (inactive) | 63.1 µM (inactive) | 46.9 µM (inactive) | 50.1 µM (inactive) | 71.8 µM (inactive) | 23.7 µM (inactive) |
| O=C(/C=C/c1ccccc1)C[C@@H](O)C[C@@H]1CC=CC(=O)O1 | 3.34 µM (inactive) | 14.2 µM (inactive) | 17.1 µM (inactive) | 5.93 µM (inactive) | 3.88 µM (inactive) | 5.13 µM (inactive) | 5.81 µM (inactive) | 14.2 µM (inactive) | 16.3 µM (inactive) | 3.75 µM (inactive) | 20 µM (inactive) | 3.32 µM (inactive) | 2.61 µM (inactive) | 14.2 µM (inactive) | 14.3 µM (inactive) | 12.5 µM (inactive) | 10.6 µM (inactive) | 14.9 µM (inactive) | 13.6 µM (inactive) | 8.97 µM (inactive) |
| O=C(c1cc(Cl)cc(Cl)c1)N(Cc1cccnc1)C(=S)N(Cc1cccnc1)C(=O)c1cc(Cl)cc(Cl)c1 | 17.3 µM (inactive) | 41.3 µM (inactive) | 87.1 µM (inactive) | 19.3 µM (inactive) | 36.6 µM (inactive) | 31.9 µM (inactive) | 26.4 µM (inactive) | 55.8 µM (inactive) | 64.3 µM (inactive) | 21.7 µM (inactive) | 35.6 µM (inactive) | 28.8 µM (inactive) | 4.37 µM (inactive) | 31.7 µM (inactive) | > 100 µM (inactive) | 41.4 µM (inactive) | 44.7 µM (inactive) | 31.3 µM (inactive) | 33 µM (inactive) | 45.7 µM (inactive) |
| CCOC(=O)C(=CNC(=S)c1ccncc1)C(=O)OCC | > 100 µM (inactive) | > 100 µM (inactive) | > 100 µM (inactive) | > 100 µM (inactive) | > 100 µM (inactive) | – | > 100 µM (inactive) | > 100 µM (inactive) | > 100 µM (inactive) | 76.2 µM (inactive) | > 100 µM (inactive) | – | > 100 µM (inactive) | > 100 µM (inactive) | > 100 µM (inactive) | > 100 µM (inactive) | > 100 µM (inactive) | > 100 µM (inactive) | > 100 µM (inactive) | > 100 µM (inactive) |
| COc1ccc2c(c1)/C(=C\c1c(-c3ccccc3)nc3n1CCS3)C(=O)N2 | 11.9 µM (inactive) | 4.99 µM (inactive) | 12.8 µM (inactive) | 10.6 µM (inactive) | 12.9 µM (inactive) | 3.71 µM (inactive) | 6.9 µM (inactive) | 12.2 µM (inactive) | 3.52 µM (inactive) | 3.82 µM (inactive) | 14.8 µM (inactive) | 14.6 µM (inactive) | 5.26 µM (inactive) | 5.25 µM (inactive) | 12.7 µM (inactive) | 12.4 µM (inactive) | 7.5 µM (inactive) | 10.7 µM (inactive) | 12.2 µM (inactive) | 4.83 µM (inactive) |
| COc1cc(C(=O)O)ccc1OS(=O)(=O)O | > 100 µM (inactive) | > 100 µM (inactive) | > 100 µM (inactive) | > 100 µM (inactive) | > 100 µM (inactive) | > 100 µM (inactive) | > 100 µM (inactive) | > 100 µM (inactive) | > 100 µM (inactive) | > 100 µM (inactive) | > 100 µM (inactive) | > 100 µM (inactive) | > 100 µM (inactive) | > 100 µM (inactive) | > 100 µM (inactive) | > 100 µM (inactive) | > 100 µM (inactive) | > 100 µM (inactive) | > 100 µM (inactive) | > 100 µM (inactive) |
